test system: HIV; assay: Assay for inhibition of HIV replication (spread assay): acute HIV infection of T-lymphoid cells; format: cell-based; conditions: Human immunodeficiency virus 1, 'less than about'
Method: Assays for the inhibition of acute HIV infection of T-lymphoid cells were conducted in accordance with Vacca, J. P. et al., Proc. Natl. Acad. Set USA 1994, 91: 4096. […] For example, the compounds of Examples 1 to 64 were tested in this assay and found to have IC95 values of less than about 10 micromolar.

| Compound | IC95 [µM] |
| --- | --- |
| CN1CC(C)(C)CCn2c(c3c(c(O)c2=O)C(=O)N(Cc2ccc(F)c(Cl)c2)CC3)C1=O [Example 45, 11-(3-Chloro-4-fluorobenzyl)-9-hydroxy-2,4,4-trimethyl-3,4,5,6,12,13-hexahydro-2H[1,4]diazocino[2,1-a]-2,6-naphthyridine-1,8,10(11H)trione] | < 10 |
| CC1CCCN(CCN2CCCC2)C(=O)c2c3c(c(O)c(=O)n21)C(=O)N(Cc1ccc(F)c(Cl)c1)CC3 (stereo not shown) [Example 34, 11-(3-Chloro-4-fluorobenzyl)-9-hydroxy-2-(2-pyrrolidinyl-1-ylethyl)-6-methyl-3,4,5,6,12,13-hexahydro-2H[1,4]diazocino[2,1-a]-2,6-naphthyridine-1,8,10(11H)-trione] | < 10 |
| CC1CCCN(CCn2cccn2)C(=O)c2c3c(c(O)c(=O)n21)C(=O)N(Cc1ccc(F)c(Cl)c1)CC3 (stereo not shown) [Example 35, 11-(3-Chloro-4-fluorobenzyl)-9-hydroxy-2-[2-(1H-pyrazol-1-yl)ethyl]-6-methyl-3,4,5,6,12,13-hexahydro-2H[1,4]diazocino[2,1-a]-2,6-naphthyridine-1,8,10(11H)-trione] | < 10 |
| CN(C)C(=O)CN1CCCCn2c(c3c(c(O)c2=O)C(=O)N(Cc2ccc(F)c(Cl)c2)CC3)C1=O [Example 13, 2-[11-(3-Chloro-4-fluorobenzyl)-9-hydroxy-1,8,10-trioxo-1,3,4,5,6,8,10,11,12,13-deca-hydro-2H-[1,4]diazocino[2,1-a]-2,6-naphthyridin-2-yl]-N,N-dimethylacetamide] | < 10 |
| CC1C(=O)N(C)c2c3c(c(O)c(=O)n21)C(=O)N(Cc1ccc(F)c(Cl)c1)CC3 (stereo not shown) [Example 8, 8-(3-Chloro-4-fluorobenzyl)-6-hydroxy-1,3-dimethyl-1,8,9,10-tetrahydroimidazo[2,1-a]-2,6-naphthyridine-2,5,7(3H)-trione] | < 10 |
| CC1CCn2c(c3c(c(O)c2=O)C(=O)N(Cc2ccc(F)c(Cl)c2)CC3)C(=O)N(C)C1 (stereo not shown) [Example 46, 11-(3-Chloro-4-fluorobenzyl)-9-hydroxy-2,4-dimethyl-3,4,5,6,12,13-hexahydro-2H[1,4]diazocino[2,1-a]-2,6-naphthyridine-1,8,10(11H)-trione] | < 10 |
| CN(C)C(=O)CN1C(=O)C(C)(C)n2c1c1c(c(O)c2=O)C(=O)N(Cc2ccc(F)c(Cl)c2)CC1 [Example 51, 2-[8-(3-Chloro-4-fluorobenzyl)-6-hydroxy-3,3-dimethyl-2,5,7-trioxo-2,3,7,8,9,10-hexahydroimidazo[2,1-a]-2,6-naphthyridin-1(5H)-yl]-N,N-dimethylacetamide] | < 10 |
| CC1CCCN(CCn2ccnc2)C(=O)c2c3c(c(O)c(=O)n21)C(=O)N(Cc1ccc(F)c(Cl)c1)CC3 (stereo not shown) [Example 36, 11-(3-Chloro-4-fluorobenzyl)-9-hydroxy-2-[2-(1H-imidazol-1-yl)ethyl]-6-methyl-3,4,5,6,12,13-hexahydro-2H[1,4]diazocino[2,1-a]-2,6-naphthyridine-1,8,10(11H)-trione] | < 10 |
| O=C1c2c(c3n(c(=O)c2O)CCCCN(CCN2CCOCC2)C3=O)CCN1Cc1ccc(F)c(Cl)c1 [Example 16, 11-(3-Chloro-4-fluorobenzyl)-9-hydroxy-2-(2-morpholin-4-ylethyl)-3,4,5,6,12,13-hexahydro-2H[1,4]diazocino[2,1a]-2,6-naphthyridine-1,8,10(11H)-trione] | < 10 |
| COCCN1CCCCn2c(c3c(c(O)c2=O)C(=O)N(Cc2ccc(F)c(Cl)c2)CC3)C1=O [Example 22, 11-(3-Chloro-4-fluorobenzyl)-9-hydroxy-2-[2-(methoxy)ethyl]-3,4,5,6,12,13-hexahydro-2H[1,4]diazocino[2,1-a]-2,6-naphthyridine-1,8,10(11H)-trione] | < 10 |
| NCCN1CCCCn2c(c3c(c(O)c2=O)C(=O)N(Cc2ccc(F)c(Cl)c2)CC3)C1=O [Example 19, 11-(3-Chloro-4-fluorobenzyl)-9-hydroxy-2-(2-aminoethyl)-3,4,5,6,12,13-hexahydro-2H[1,4]diazocino[2,1-a]-2,6-naphthyridine-1,8,10(11H)-trione] | < 10 |
| NC(=O)CN1CCCCn2c(c3c(c(O)c2=O)C(=O)N(Cc2ccc(F)c(Cl)c2)CC3)C1=O [Example 15, 2-[11-(3-Chloro-4-fluorobenzyl)-9-hydroxy-1,8,10-trioxo-1,3,4,5,6,8,10,11,12,13-deca-hydro-2H-[1,4]diazocino[2,1-a]-2,6-naphthyridin-2-yl]acetamide] | < 10 |
| CN1CC(=O)CCn2c(c3c(c(O)c2=O)C(=O)N(Cc2ccc(F)c(Cl)c2)CC3)C1=O [Example 25, 11-(3-Chloro-4-fluorobenzyl)-9-hydroxy-2-methyl-5,6,12,13-tetrahydro-2H[1,4]diazocino[2,1-a]-2,6-naphthyridine-1,4,8,10(3H, 11H)-tetrone] | < 10 |
| CN1CCC[C@H](CO)n2c(c3c(c(O)c2=O)C(=O)N(Cc2ccc(F)c(Cl)c2)CC3)C1=O [Example 47, (6R)-11-(3-Chloro-4-fluorobenzyl)-9-hydroxy-6-(hydroxymethyl)-2-methyl-3,4,5,6,12,13-hexahydro-2H-[1,4]diazocino[2,1-a]-2,6-naphthyridine-1,8,10(11H)-trione] | < 10 |
| O=C1c2c(c3n(c(=O)c2O)CCCCN(CCN2CCCCC2)C3=O)CCN1Cc1ccc(F)c(Cl)c1 [Example 18, 11-(3-Chloro-4-fluorobenzyl)-9-hydroxy-2-(2-piperidinyl-1-ylethyl)-3,4,5,6,12,13-hexahydro-2H[1,4]diazocino[2,1-a]-2,6-naphthyridine-1,8,10(11H)-trione] | < 10 |
| CN1CC(N2CCOCC2)CCn2c(c3c(c(O)c2=O)C(=O)N(Cc2ccc(F)c(Cl)c2)CC3)C1=O (stereo not shown) [Example 27, 11-(3-Chloro-4-fluorobenzyl)-9-hydroxy-2-methyl-4-morpholin-4-yl-3,4,5,6,12,13-hexahydro-2H[1,4]diazocino[2,1-a]-2,6-naphthyridine-1,8,10(11H)-trione] | < 10 |
| O=C(O)CN1CCCCn2c(c3c(c(O)c2=O)C(=O)N(Cc2ccc(F)c(Cl)c2)CC3)C1=O [Example 12, [11-(3-Chloro-4-fluorobenzyl)-9-hydroxy-1,8,10-trioxo-1,3,4,5,6,8,10,11,12,13-deca-hydro-2H-[1,4]diazocino[2,1-a]-2,6-naphthyridin-2-yl]acetic acid] | < 10 |
| C[C@H]1C[C@@H](O)CN(C)C(=O)c2c3c(c(O)c(=O)n21)C(=O)N(Cc1ccc(F)c(Cl)c1)CC3 [Example 43, (4R,6S)-11-(3-Ch1oro-4-fluorobenzyl)-4,9-dihydroxy-2,6-dimethyl-3,4,5,6,12,13-hexahydro-2H[1,4]diazocino[2,1-a]-2,6-naphthyridine-1,8,10(11H)-trione] | < 10 |
| CN1CC(O)C(C)(C)Cn2c(c3c(c(O)c2=O)C(=O)N(Cc2ccc(F)cc2)CC3)C1=O (racemic) [Example 42, (4R/S)-11-(4-Fluorobenzyl)-4,9-dihydroxy-2,5,5-trimethyl-3,4,5,6,12,13-hexahydro-2H[1,4]diazocino[2,1-a]-2,6-naphthyridine-1,8,10(11H)-trione] | < 10 |
| CN1CCCCn2c(c3c(c(O)c2=O)C(=O)N(Cc2ccc(F)c(Cl)c2)CC3)C1=O [Example 1, 11-(3-Chloro-4-fluorobenzyl)-9-hydroxy-2-methyl-3,4,5,6,12,13-hexahydro-2H[1,4]diazocino[2,1-a]-2,6-naphthyridine-1,8,10(11H)-trione] | < 10 |
| CN1CCCCn2c(c3c(c(O)c2=O)C(=O)N(Cc2ccc(F)cc2)CC3)C1=O [Example 2, 11-(4-Fluorobenzyl)-9-hydroxy-2-methyl-3,4,5,6,12,13-hexahydro-2H[1,4]diazocino[2,1-a]-2,6-naphthyridine-1,8,10(11H)-trione] | < 10 |
| CN1CCC(O)Cn2c(c3c(c(O)c2=O)C(=O)N(Cc2ccc(F)c(Cl)c2)CC3)C1=O (stereo not shown) [Example 37, 11(3-Chloro-4-fluorobenzyl)-5,9-dihydroxy-2-methyl-3,4,5,6,12,13-hexahydro-2H[1,4]diazocino[2,1-a]-2,6-naphthyridine-1,8,10(11H)-trione] | < 10 |
| CN1CC(O)C(C)(C)Cn2c(c3c(c(O)c2=O)C(=O)N(Cc2ccc(F)c(Cl)c2)CC3)C1=O (racemic) [Example 38, (4R/S)-11-(3-Chloro-4-fluorobenzyl)-4,9-dihydroxy-2,5,5-trimethyl-3,4,5,6,12,13-hexahydro-2H[1,4]diazocino[2,1-a]-2,6-naphthyridine-1,8,10(11H)-trione] | < 10 |
| CC(=O)OCCCN1C(=O)C(C)(C)n2c1c1c(c(O)c2=O)C(=O)N(Cc2ccc(F)c(Cl)c2)CC1 [Example 58, 8-(3-Chloro-4-fluorobenzyl)-6-hydroxy-1-(3-acetyloxypropyl)-3,3-dimethyl-1,8,9,10-tetrahydroimidazo[2,1-a]-2,6-naphthyridine-2,5,7(3H)-trione] | < 10 |
| CN1CC(N2CCCC2)CCn2c(c3c(c(O)c2=O)C(=O)N(Cc2ccc(F)c(Cl)c2)CC3)C1=O (stereo not shown) [Example 26, 11-(3-Chloro-4-fluorobenzyl)-9-hydroxy-2-methyl-4-pyrrolidin-1-yl-3,4,5,6,12,13-hexahydro-2H[1,4]diazocmo[2,1-a]-2,6-naphthyridine-1,8,10(11H)-trione] | < 10 |
| O=C1c2c(c3n(c(=O)c2O)CCCCN(CCO)C3=O)CCN1Cc1ccc(F)c(Cl)c1 [Example 11, 11-(3-Chloro-4-fluorobenzyl)-9-hydroxy-2-(2-hydroxyethyl)-3,4,5,6,12,13-hexahydro-2H[1,4]diazocino[2,1-a]-2,6-naphthyridine-1,8,10(11H)-trione] | < 10 |
| CN1C(=O)C(C)(C)n2c1c1c(c(O)c2=O)C(=O)N(Cc2ccc(F)c(Cl)c2)CC1 [Example 9, 8-(3-Chloro-4-fluorobenzyl)-6-hydroxy-1,3,3-trimethyl-1,8,9,10-tetrahydroimidazo[2,1a]-2,6-naphthyridine-2,5,7(3H)-trione] | < 10 |
| CN1CCC[C@@H](CO)n2c(c3c(c(O)c2=O)C(=O)N(Cc2ccc(F)c(Cl)c2)CC3)C1=O [Example 49, (6S)-11-(3-Chloro-4-fluorobenzyl)-9-hydroxy-6-(hydroxymethyl)-2-methyl-3,4,5,6,12,13-hexahydro-2H-[1,4]diazocino[2,1-a]-2,6-naphthyridine-1,8,10(11H)-trione] | < 10 |
